Experimental data reported in patent publication US6890969B2, “Polymer emulsion preservation using cationic compounds” (Air Products Polymers, L.P., priority 2000, dated 2005).
Counter-ions that a name gives are not always drawn. Like-named read-outs stand apart in the source and are kept apart here. Marks after values point to notes of the source that are not given here.

Key:
GABL = GABL biochallenge test of preserved polymer emulsions (streak plate / RABIT), inoculations passed; format: cell-based, Gluconoacetobacter liquefaciens; conditions: for Inoculations Passed: PVOH-stabilized VAE emulsion, <1000 ppm vinyl acetate
Method: GABL Inoculum Preparation
A recently isolated culture of GABL was grown on potato dextrose agar slants by inoculating the agar surface. The potato dextrose agar slants were incubated for 48-72 hours at 25° C. After this incubation period, GABL cells were harvested using quarter strength Ringers solution to wash the GABL colonies off of the agar surface. The washings from each slant were combined into one sterile, Erlenmeyer flask. The number of slants and the amount of quarter strength Ringers solution used to wash off the GABL colonies was adjusted during the procedure to obtain a final microbial viable count in the range of 10^8-10^10 CFU/mL.
Rapid Automated Bacterial Impedance Technique (RABIT): supplied by Microbiology International, manufactured by Don Whitley Scientific, Ltd.
RABIT utilizes the principal of impedance microbiology to detect and assess microbial activity in a given sample. Using the RABIT, microbial metabolism is monitored by measuring the amount of carbon dioxide produced by actively respiring microorganisms. The electrodes in the RABIT test cells are partially covered with alkaline agar containing potassium hydroxide. As inoculated test samples are monitored on the RABIT, carbon dioxide produced from microbial metabolism is absorbed by the alkaline agar resulting in a change in conductivity. Conductivity is monitored with time and the time to reach a pre-specified rate of reduction in conductivity is termed the time to detection (TTD). Therefore, the shorter the TTD, the higher the number of microorganisms present. Failure can be defined as three successive decreases in conductivity equal to or greater than a pre-specified value (−10 microSiemens is recommended by the manufacturer) at any time during the 72 hour RABIT monitoring period. Alternatively, failure can be defined as a pre-specified total change in conductivity.
Biochallenge Test Procedure
Samples (50 g each) of each test emulsion containing a test antimicrobial agent were inoculated with 1.0 mL of the GABL inoculum. After mixing well, the samples were then placed in a 30° C. incubator. After 1, 2, and 6 days of incubation each sample was streak plated onto potato dextrose agar to assess the level of surviving GABL microorganisms. The potato dextrose agar plates were incubated at 25° C. for 48-72 hours before assessing the growth. On the seventh day of incubation, each test emulsion sample was inoculated again with a freshly prepared GABL inoculum, mixed well, then placed back into the incubator. The samples were again streak plated onto potato dextrose agar after incubating for 1, 2, and 6 days since the second inoculation. On the fourteenth day after the test was initiated, the test emulsions were inoculated a third time with another freshly prepared GABL inoculum and then placed back into the incubator. The samples were again streak plated onto potato dextrose agar after 1, 2, 6, and 13 days of incubation since the third inoculation to assess surviving microorganisms. Test failure is defined as a microbial viable count >300 CFU/10 μL observed from the potato dextrose agar streak plate assessments.
Biochallenge Test Procedure Via the RABIT
A small amount of a microbial nutrient was added to each emulsion test sample (50 g) containing a test antimicrobial agent. The resulting samples were then inoculated with 1.0 mL of the GABL inoculum. After mixing well, an aliquot (5 g) of each test sample was placed into separate RABIT indirect conductivity tubes. The indirect conductivity tubes were then placed into the RABIT incubator modules set at 30° C. and the conductivity changes monitored for up to 72 hours. The remainder of each test sample was stored in a 30° C. incubator during the RABIT monitoring period. At the completion of the RABIT monitoring period, the aliquot samples were placed back into their respective sample containers. Each test sample was then re-inoculated with a freshly prepared GABL inoculum. […]

mixed bacterial pool = format: cell-based; conditions: PVOH-stabilized VAE emulsion Tg 0, <1000 ppm vinyl acetate
Method: The preservative efficacy of several cationic compounds in a poly(vinyl alcohol)-stabilized VAE copolymer emulsion (Tg=0) containing less than 1000 ppm vinyl acetate was assessed according to the following procedure:
Aeromonas hydrophilia, Alcaligenes faecalis, Corynebacterium ammoniagenes, Enterobacter aerogenes, Escherichia coli, Klebsiella pneumoniae, Pseudomonas aeruginosa, Proteus vulgaris, Providencia rettgeri, Pseudomonas stutzeri, Shewanella putrefaciens, Serratia liquefaciens, Acinetobacter baumannii, Burkholderia cepacia, Chryseobacterium meningosepticum, Sphingobacterium spiritivorum, Ralstonia pickettii, and GABL.
Mixed Bacterial Pool Inoculum Preparation
Each bacterial culture was individually grown on nutrient agar slants, except GABL was grown on potato dextrose agar slants, by inoculating the agar surfaces. The nutrient agar slants were incubated for 24-48 hours at 30° C. and the potato dextrose agar slants were incubated for 48-72 hours at 25° C. After this incubation period, the cells were harvested using quarter strength Ringers solution to wash the bacterial colonies off the agar surface. The washings from all of the slants were combined into one sterile, Erlenmeyer flask. The number of slants and the amount of Ringers Solution used to wash off the bacterial colonies is adjusted during the procedure to obtain a final mixed microbial viable count in the range of 10^8-10^10 CFU/mL.
Bacterial Biochallenge Test Procedure
The RABIT procedures were followed as described in Example 1, except the mixed bacterial pool inoculum was used to inoculate the test samples instead of the GABL inoculum.

CCCCCCCCCCCCNC(=N)N [DGH, n-dodecylguanidine hydrochloride]
# of GABL Inoculations Passed (GABL; DGH 100 ppm, emulsion VA/E, Tg 0 °C, H2O2/SFS, PVOH (first such line of Table 2)): 3
# of GABL Inoculations Passed (GABL; DGH 100 ppm, emulsion VA/E, Tg 0 °C, H2O2/SFS, PVOH (second such line of Table 2)): 2
# of GABL Inoculations Passed (GABL; DGH 100 ppm, emulsion VA/E, Tg 0 °C, H2O2/SFS, PVOH/nonionic surfactant): 1
# of GABL Inoculations Passed (GABL; DGH 100 ppm, emulsion VA/E, Tg 4 °C, KPS/SFS, Nonionic surfactant/HEC): 0
# of GABL Inoculations Passed (GABL; DGH 100 ppm, emulsion VA/E, Tg 14 °C, H2O2/SFS, PVOH): 5
# of GABL Inoculations Passed (GABL; DGH 100 ppm, emulsion VA/E, Tg 20 °C, H2O2/SFS, PVOH, stopped after 4th inoculation): ≧4^b
# of GABL Inoculations Passed (GABL; DGH 100 ppm, emulsion VA/E, Tg −5 °C, H2O2/SFS, PVOH/nonionic surfactant): 1
# of GABL Inoculations Passed (GABL; DGH 100 ppm, emulsion VA/E, Tg −15 °C, H2O2/SFS, PVOH): 2
# of GABL Inoculations Passed (GABL; DGH 100 ppm, emulsion VA/E/MA/SVS, Tg 5 °C, KPS/SFS, Nonionic surfactant): 0
# of GABL Inoculations Passed (GABL; DGH 150 ppm, emulsion VA/E, Tg 0 °C, H2O2/SFS, PVOH (first such line of Table 2)): 4
# of GABL Inoculations Passed (GABL; DGH 150 ppm, emulsion VA/E, Tg 0 °C, H2O2/SFS, PVOH/nonionic surfactant): 2
# of GABL Inoculations Passed (GABL; DGH 150 ppm, emulsion VA/E, Tg 4 °C, KPS/SFS, Nonionic surfactant/HEC): 0
# of GABL Inoculations Passed (GABL; DGH 150 ppm, emulsion VA/E, Tg 14 °C, H2O2/SFS, PVOH, stopped after 7th inoculation): ≧7^a
# of GABL Inoculations Passed (GABL; DGH 150 ppm, emulsion VA/E, Tg 20 °C, H2O2/SFS, PVOH, stopped after 4th inoculation): ≧4^b
# of GABL Inoculations Passed (GABL; DGH 150 ppm, emulsion VA/E, Tg −5 °C, H2O2/SFS, PVOH/nonionic surfactant): 3
# of GABL Inoculations Passed (GABL; DGH 150 ppm, emulsion VA/E, Tg −15 °C, H2O2/SFS, PVOH): 5
# of GABL Inoculations Passed (GABL; DGH 150 ppm, emulsion VA/E/MA/SVS, Tg 5 °C, KPS/SFS, Nonionic surfactant): 0
# of GABL Inoculations Passed (GABL; DGH 200 ppm, emulsion VA/E, Tg 0 °C, H2O2/SFS, PVOH (first such line of Table 2), stopped after 7th inoculation): ≧7^a
# of GABL Inoculations Passed (GABL; DGH 200 ppm, emulsion VA/E, Tg 0 °C, H2O2/SFS, PVOH (second such line of Table 2)): 7
# of GABL Inoculations Passed (GABL; DGH 200 ppm, emulsion VA/E, Tg 0 °C, H2O2/SFS, PVOH/nonionic surfactant): 2
# of GABL Inoculations Passed (GABL; DGH 200 ppm, emulsion VA/E, Tg 4 °C, KPS/SFS, Nonionic surfactant/HEC): 0
# of GABL Inoculations Passed (GABL; DGH 200 ppm, emulsion VA/E, Tg 8 °C, KPS/SFS, PVOH): 2
# of GABL Inoculations Passed (GABL; DGH 200 ppm, emulsion VA/E, Tg 14 °C, H2O2/SFS, PVOH, stopped after 7th inoculation): ≧7^a
# of GABL Inoculations Passed (GABL; DGH 200 ppm, emulsion VA/E, Tg 20 °C, H2O2/SFS, PVOH, stopped after 4th inoculation): ≧4^b
# of GABL Inoculations Passed (GABL; DGH 200 ppm, emulsion VA/E, Tg −5 °C, H2O2/SFS, PVOH/nonionic surfactant): 3
# of GABL Inoculations Passed (GABL; DGH 200 ppm, emulsion VA/E, Tg −15 °C, H2O2/SFS, PVOH, stopped after 7th inoculation): ≧7^a
# of GABL Inoculations Passed (GABL; DGH 200 ppm, emulsion VA/E/AA, Tg 0 °C, H2O2/SFS, PVOH/nonionic surfactant): 0
# of GABL Inoculations Passed (GABL; DGH 200 ppm, emulsion VA/E/MA/SVS, Tg 5 °C, KPS/SFS, Nonionic surfactant): 0
# of GABL Inoculations Passed (GABL; DGH 200 ppm, emulsion VA/E/SVS/NMA, Tg 10 °C, TBHP/sodium erythorbate, Anionic sulfate surfactant): 0
Inoculations Passed (GABL; Tg 0 °C, biocide dosage 50 ppm active): 1
Inoculations Passed (GABL; Tg 0 °C, biocide dosage 100 ppm active): 2
Inoculations Passed (GABL; Tg 0 °C, biocide dosage 200 ppm active): 7
Inoculations Passed (mixed bacterial pool; active biocide dosage 100 ppm): 2
Inoculations Passed (mixed bacterial pool; active biocide dosage 200 ppm): 7
